# From US6514967B1 (priority 1997, dated 2003)
# Tests used:
# [1] = system: release of free radicals induced by glutamate in the striatum; test: In vivo intracerebral perfusion (striatum microdialysis), generation of radicals by injection of glutamate; conditions: 1 mM in perfusion medium
# From the text: C) tests in vivo on intracerebral perfusion and generation of radicals by injection of glutamate.
# Experimental preparation: [J. Neurosci. Methods, 72 (1997) 123-135]
# The animals used are male rats of the Wistar strain weighing 250 g. Under general anaesthesia, the animals are placed in a stereotaxic apparatus. A cannula guide is introduced by microsurgery into the striatum (coordinates A : +0.02 cm; L: −0.30 cm and H: −0.65 cm relative to the 0 point defined according to Paxinos and Watson). Three to four screws are arranged on the animal's skull and the whole is fixed with dental cement (Durelon). After a recovery period during which the animals become used to the tester, a CMA 12 microdialysis cannula is inserted in the guide in such a way that the cellophane membrane projects 2 mm into the brain tissue. All the perfusions are effected on animals that are awake. A physiological solution (NaCl: 140 mM; KCl: 5 mM; […]: 3.9 mM), to which 250 μM of Na salicylate is added extemporaneously, is injected into the system at a constant flow rate of 1 μl.min^−1. […]
# Salicylic acid present in the perfusion fluid reacts with the OH radicals released at the perfusion site, forming a compound, 2,3-dihydroxybenzoic acid (2,3-DBHA), which is specific to this reaction. This reaction product is quantified in each sample by high-performance liquid chromatography followed by Electrochemical Detection. […]
# [2] = Concentration in brain and plasma after systemic injection; type: in vivo, rats of the Wistar strain
# Method: Experimental preparation: [Amer. J. Physiol., 267 (1994) R164-R170]
# Under general anaesthesia, catheters made from tubes of flexible and inert polyethylene PE50 (Clay Adams) are placed in the right carotid artery of male rats of the Wistar strain weighing 250 g, and are slid under the skin to emerge at the nape at a site that is inaccessible to the animal. The injections are carried out 5 days later, to allow the animals optimum post-operative recovery. This arrangement permits easy and very quick systemic injections on the animal while it is conscious.
# At the specified time after injection, the animals are killed by decapitation. The brains are removed in less than a minute without further fractionation. The meninges are quickly separated and the brains are rinsed in a large volume of physiological serum before being frozen at −30° C. The blood is collected on EDTA in tubes maintained at 0° C. After centrifugation, the plasma is separated and aliquots are preserved at −30° C.
# After thawing, the brains are weighed and homogenized in the cold in 3 volumes of NaOH (0.1N), using an Ultra-Turrax pulverizer. An internal standard, at a suitable concentration, is added to each sample to allow for individual variations in extraction. The pulverizates are directly extracted three times with a total of 6 volumes of ethyl acetate, followed each time by centrifugation at high speed.
# Apart from the stage of pulverizing, the plasmas are treated similarly.
# The extracts are filtered through a 0.22 μm Millipore membrane and, after evaporation of the solvent under a nitrogen stream, the dry extracts are stored at −30° C.
# One of the compounds of the invention (IC 180), diluted in physiological serum, is injected at a concentration equal to 20 mg.kg^−1. […] Its concentration decreases by about 50% in the brain, 1 hour after injection. […] The ratio of the concentrations between the brain and the plasma therefore increases between 30 and 60 minutes after injection.
# [3] = 30 min after injection of 20 mg.kg^−1
# [4] = 1 hour after injection of 20 mg.kg^−1
structure (smiles),measurement,setting,value
"c1cc2c(s1)CCCC2N1CCOCC1 (stereo not shown) [IC180, morpholine-4-tetrahydro-4,5,6,7-benzothiophene]","release of free radicals induced by glutamate (2,3-dihydroxybenzoic acid)","[1]; striatum, awake rats, 1.5 mM Na glutamate, FIG. 9",Blocking
same,toxic side effect of introduction in situ,[1]; response restored a week later,did not have a toxic side effect
same,detection in the brain,[2]; [3],detected preferentially in the brain
same,detection in the plasma,[2]; [3],clearly identifiable in the plasma
same,decrease of concentration in the brain,[2]; [4],about 50%
same,detection in the plasma,[2]; [4],can only be detected very slightly
same,ratio of the concentrations between the brain and the plasma,"[2]; between 30 and 60 minutes after injection, FIG. 10",increases
